Measured values from patent publication US12350308B2, “Phosphorylcholine conjugates and uses thereof” (TPCERA LTD., priority 2013, dated 2025).
*1 amine or outer side, *2 acyl side, *3 side chain or, on linkers, in order; H or OH if unused. Where a SMILES comes first, the peptide text is derived from it. [ ]: non-standard residue; d: D form. X1 = C[N+](C)(C)CCOP(=O)([O-])Oc1ccc(N=Nc2cc(C[C@H](N[*:1])C(=O)[*:2])ccc2O)cc1

What was measured:
male C57BL/6 mice = test: DSS induced acute colitis in mice; assay type: in vivo
Protocol: The effect of PC-tuftsin derivative (SEQ ID NO: 25) on colitis development was determined in a mouse model subjected to induction of acute colitis by dextran sulfate sodium (DSS) treatment. Specifically, induction of colitis was carried out in male C57BL/6 mice (“colitis mice”) by supplementing the drinking water (2.5% wt/v) for five days with DSS (mol. wt. 36,000-50,000).
Two groups of mice were fed daily via oral ingestion using a feeding-needle, with PC-tuftsin derivative at a concentration of 500 μg/0.1 ml per mouse (treatment; n=10), or PBS (control; n=10). These compounds were given during 11 days starting two days before DSS administration.
Assessment of colitis development was performed by monitoring body weight, rectal bleeding, stool consistency, and survival every second day. Intestinal bleeding was followed by Hemoccult test and observation of bleeding signs on the anus or gross bleeding. The daily disease activity index (DAI) was calculated by grading on a scale of zero to four the following parameters: change in weight (0, <1%; 1, 1-5%; 2, 5-10%; 3, 10— 15%; and 4, >15%), intestinal bleeding (0, negative; 4, positive), and stool consistency (0, normal; 2, loose stools; 4, diarrhea). The combined scores were then divided by three to obtain the final disease activity index. Ten days following disease induction, mice were sacrificed and the large intestine was collected and evaluated for colon length and microscopic colonic damage. For microscopic scoring, the proximal, medial, and distal portions of the colon and the cecum were fixed in 10% phosphate-buffered formalin. Paraffin-embedded sections were stained with H&E. The degree of histological damage and inflammation was graded in a blinded fashion by an expert pathologist

NZBxW/F1 lupus mice = test: Survival of lupus mice treated with TD-PC (Kaplan-Meier); assay type: in vivo; conditions: already at week 24
Protocol: A main complication of lupus nephritis is a short survival time due to severe kidney failure. Therefore, the survival time of mice treated either with TD-PC or with PC, tuftsin derivative (SEQ ID NO: 25) or PBS (control) was analyzed.

[1] = test system: splenocytes of NZBW/F1 female mice; test: Cytokine secretion in-vitro by splenocytes of lupus mice treated with TD-PC; assay type: in vivo; conditions: vs PBS
Protocol: NZBW/F1 female mice having lupus were treated with TD-PC (SEQ ID NO: 25 conjugated to PC) or the corresponding control treatments. Mice were sacrificed at week 30, and their splenocytes were studied in-vitro for the expression of pro-inflammatory cytokines (IFNγ, IL-17) and anti-inflammatory (TGFβ, IL-10) cytokines using RT-PCR. […] In contrast, TD-PC increased the mRNA expression of the anti-inflammatory cytokine TGFβ in the (p<0.001) compared to the mRNA expressed by splenocytes derived from PBS-treated mice (FIG. 24A).
However, a prominent increase in anti-inflammatory cytokines (TGFβ, IL-10) secretion in-vitro by splenocytes derived from TD-PC treated mice is illustrated in FIG. 24B. […] IFNγ secretion upon tuftsin derivative (SEQ ID NO: 25) or PC treatments was reduced by 2.5 and 1.5 times respectively (p<0.03 and p<0.04, respectively).

[2] = test system: splenocytes derived from CIA mice; test: Cytokine secretion in-vitro by splenocytes of CIA mice (oral and s.c. TD-PC); assay type: in vivo; conditions: splenocyte culture fluids
Protocol: Cytokines play a major role in synovial inflammation while the major ones are IL-17, TNFα and IL-1. Secretion of pro-inflammatory (TNFα, IL-1β, IL-17) and anti-inflammatory cytokines (IL-10) by splenocytes derived from CIA mice treated with TD-PC or PBS (control), in-vitro, was evaluated.
Furthermore, TD-PC increased the level of anti-inflammatory cytokine IL-10 in a significant manner compared to control mice (p<0.0001; FIG. 28D and Table 3).

[3] = test system: CD4+CD25+FOXP3+ Treg cells; test: Treg expansion in splenocytes of CIA mice (FACS), Example 16; assay type: in vivo; conditions: vs PBS
Excerpt: The frequency of CD4+CD25+FOXP3+ Treg cells subset in isolated mice splenocytes, following treatment with TD-PC or control (PBS) is elucidated in FIGS. 29A-29B. […] Representative data of the CD4+CD25+FOXP3+ levels in splenocytes derived from TD-PC and PBS treated mice gating on CD4+ T cells are presented in FIG. 29A and the corresponding statistics is presented in FIG. 29B.

[4] = test system: IL-10+CD25+CD1d+ Breg cells; test: Breg expansion in splenocytes of mice with established CIA (FACS); assay type: in vivo; conditions: isolated splenocytes; PBS 0.4%
Protocol: The mean percentage of Breg cells in isolated splenocytes following treatment with TD-PC, PBS, TD (SEQ ID NO: 25), PC, TD+PC and None was measured within IL-10+CD25+CD1d+ subset. […] Representative data of IL-10+CD25+CD1d+ levels in splenocytes derived from TD-PC, PBS, TD (SEQ ID NO: 25), PC and TD+PC treated mice gating on IL-10+ B cells, are presented in FIG. 34A.

THP-1 cells = test: Shift of M1 polarized macrophages to M2 macrophages secreting IL-10; assay type: cell-based, human; conditions: 5 μg/ml for 72 hrs; in comparison to OVA-PC
Protocol: The relative expression of the anti-inflammatory cytokine IL-10 was analyzed in human macrophages treated with TD-PC (TD-PC), and PC-Ovalbumin (OVA-PC). Specifically, THP-1 cells (a monocytic cell line established from human monocytic leukemia) were induced to differentiation into adherent macrophage-like phenotype (M0) by culturing the cells (10^5 cells/ml) in the presence of phorbol 12-myristate 13-acetate (PMA; 80 nM) and VD3 (100 nM). For inducing differentiation from M0 to M1 (M1 polarized macrophages) the cells were further incubated with LPS (1 μg/ml), IFNγ (20 ng/ml). For shifting from M1 to M2 macrophages (M2 polarized macrophages) the cells were washed and further incubated with IL-4 (10 ng/ml) and IL-13 (10 ng/ml) for 72 hours.
In order to determine whether TD-PC, TD, PC or PC-OVA can induce a shift form M1 cells to M2 macrophages secreting anti-inflammatory cytokine IL-10, M1 polarized macrophages were incubated with each molecule or conjugate at 5 μg/ml for 72 hrs.

[5] = 500 μg/0.1 ml oral daily, vs PBS

C[C@@H](O)[C@H](N)C(=O)N[C@@H](CCCCN)C(=O)N1CCC[C@H]1C(=O)N[C@@H](CCCNC(=N)N)C(=O)NCC(=O)N[C@@H](Cc1ccc(O)c(N=Nc2ccc(OP(=O)([O-])OCC[N+](C)(C)C)cc2)c1)C(=O)O [TD-PC, Thr-Lys-Pro-Arg-Gly-Tyr-PC] (H-TKPRG[X1]-OH)
daily disease activity index (DAI) score (male C57BL/6 mice; 500 μg/0.1 ml oral daily, day 8, PBS 2.6 after 5 days): around 0.9 | loss of weight (male C57BL/6 mice; [5]): significantly low | rectal bleeding (male C57BL/6 mice; [5]): significantly low | survival (male C57BL/6 mice; [5]): significantly higher survival | colon length (male C57BL/6 mice; PBS mice five-six cm): eight | histological analysis of colon sections (H&E) (male C57BL/6 mice; vs PBS): attenuated colon destruction | percentage of death number vs PBS injected mice (NZBxW/F1 lupus mice): significant difference | IL-17 secretion from splenocytes ([1]; in vitro): significant decline | IL-10 secretion by splenocytes ([1]; in-vitro): remarkably increased | TGFβ production by splenocytes ([1]; in-vitro): significantly upregulated | reduction of splenocyte secretion of IFNγ ([1]; in-vitro): 5.2 times | IL-1β ([2]; oral): 183 pg/mL | IL-10 ([2]; oral): 3605 pg/mL | IL-17 ([2]; oral): 505 pg/mL | TNFα ([2]; oral): 633 pg/mL | IL-1β ([2]; s.c.): 198 pg/mL | IL-10 ([2]; s.c.): 2917 pg/mL | IL-17 ([2]; s.c.): 497 pg/mL | TNFα ([2]; s.c.): 621 pg/mL | CD4+CD25+FOXP3+ Treg cells in isolated splenocytes [3]: striking increase | mean percentage of IL-10+CD25+CD1d+ Breg cells [4]: 13.73% | shift of M1 macrophages to M2 macrophages secreting IL-10 (THP-1 cells): significant shift
